Assay results as given in ChEMBL document CHEMBL5543126, “Combinatorial Ubiquitination REal-time PROteolysis (CURE-PROs): A Modular Platform for Generating Reversible, Self-Assembling Bifunctional Targeted Degraders” (J Med Chem, 2024).
Each block holds one compound with its values, some of them ahead of it. Active and inactive are the calls of the source. No cut-off for these calls is given here.

Key:
Assay type in all cases: cell-based
[1] = target: Protein cereblon/Bromodomain-containing protein 4 (Homo sapiens) (UniProt O60885+Q96SW2); test: PROTAC activity at BRD4/CRBN in human HeLa cells assessed as induction of BRD4 degradation at 10 uM incubated for 24 hrs in presence of CRBN based ligand N-((2-(2,6-dioxopiperidin-3-yl)-1,3-dioxoisoindolin-4-yl)methyl)-3,4-dihydroxybenzamide by Western blot analysis based Combinatorial Ubiquitination Real-time PROteolysis analysis
Chain of Protein cereblon/Bromodomain-containing protein 4 (Homo sapiens) (Q96SW2 whole entry, looked up, other chains not shown): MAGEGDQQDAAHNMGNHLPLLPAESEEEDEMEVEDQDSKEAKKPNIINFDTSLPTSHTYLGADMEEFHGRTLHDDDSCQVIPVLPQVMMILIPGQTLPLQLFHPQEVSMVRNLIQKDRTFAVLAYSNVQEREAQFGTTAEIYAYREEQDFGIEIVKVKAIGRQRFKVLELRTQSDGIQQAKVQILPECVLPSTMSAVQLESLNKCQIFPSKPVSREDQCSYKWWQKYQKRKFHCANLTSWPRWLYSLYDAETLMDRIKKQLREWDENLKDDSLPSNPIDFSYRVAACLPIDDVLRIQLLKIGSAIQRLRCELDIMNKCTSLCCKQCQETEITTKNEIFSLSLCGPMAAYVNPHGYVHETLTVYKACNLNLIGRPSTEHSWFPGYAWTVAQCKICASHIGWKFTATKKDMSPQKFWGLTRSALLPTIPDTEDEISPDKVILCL

[2] = target: T1, von Hippel-Lindau disease tumor suppressor/Bromodomain-containing protein 4 (Homo sapiens, UniProt O60885+P40337); test: (§1) PROTAC activity at VHL/BRD4 in HEK293 cells assessed as induction of BRD4 degradation by measuring degradation rate at 3 uM measured every 15 mins for 24 hrs in presence of VHL based ligand (2S,4R)-1-((S)-2-(2,3-dihydroxybenzamido)-3,3-dimethylbutanoyl)-4-hydroxy-N-(4-(4-methylthiazol-5-yl)benzyl)pyrrolidine-2-carboxamide by HiBiT based Combinatorial Ubiquitination Real-time PROteolysis analysis
T1 sequence (P40337 whole entry, looked up, other chains not shown): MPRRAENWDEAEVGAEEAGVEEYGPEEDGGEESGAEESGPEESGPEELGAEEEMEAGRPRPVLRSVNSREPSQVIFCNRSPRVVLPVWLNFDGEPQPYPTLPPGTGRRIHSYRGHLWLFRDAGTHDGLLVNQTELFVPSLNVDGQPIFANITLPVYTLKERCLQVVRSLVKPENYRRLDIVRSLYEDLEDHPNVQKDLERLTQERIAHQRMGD

[3] = target: T1, von Hippel-Lindau disease tumor suppressor/Bromodomain-containing protein 4; test: as §1, with “measuring maximal level of” for “measuring”, “degradation” for “degradation rate”
[4] = target: T1, von Hippel-Lindau disease tumor suppressor/Bromodomain-containing protein 4; test: as §1, with “measuring Tmax” for “measuring degradation rate”, “at 1” for “at 3”
[5] = target: T1, von Hippel-Lindau disease tumor suppressor/Bromodomain-containing protein 4; test: (§2) PROTAC activity at VHL/BRD4 in human MCF7 cells assessed as induction of BRD4 degradation at 10 uM measured at 4 hrs in presence of VHL based ligand (2S,4R)-1-((S)-2-(2,3-dihydroxybenzamido)-3,3-dimethylbutanoyl)-4-hydroxy-N-(4-(4-methylthiazol-5-yl)benzyl)pyrrolidine-2-carboxamide by Western blot based Combinatorial Ubiquitination Real-time PROteolysis analysis
[6] = target: T1, von Hippel-Lindau disease tumor suppressor/Bromodomain-containing protein 4; test: as §2, with “BRD4/VHL” for “VHL/BRD4”, “degradation by measuring residual activity” for “degradation”, “100 nM incubated for 24” for “10 uM measured at 4”
[7] = target: T1, von Hippel-Lindau disease tumor suppressor/Bromodomain-containing protein 4; test: as §2, with “BRD4/VHL” for “VHL/BRD4”, “degradation by measuring residual activity” for “degradation”, “3” for “10”, “incubated for 24” for “measured at 4”
[8] = target: T1, von Hippel-Lindau disease tumor suppressor/Bromodomain-containing protein 4; test: (§3) PROTAC activity at BRD4/VHL in human MCF7 cells assessed as induction of BRD4 degradation by measuring residual activity at 1 uM incubated for 24 hrs in presence of 100 nM BRD4 based ligand ((4S)-6-(4-chlorophenyl)-4-(2-(ethylamino)-2-oxoethyl)-1-methyl4Hbenzo[f][1,2,4]triazolo [4,3-a][1,4]diazepin-8-yl)boronic acid by Western blot based Combinatorial Ubiquitination Real-time PROteolysis analysis
[9] = target: T1, von Hippel-Lindau disease tumor suppressor/Bromodomain-containing protein 4; test: (§4) PROTAC activity at BRD4/VHL in human MCF7 cells assessed as induction of BRD4 degradation by measuring residual activity at 3 uM incubated for 24 hrs in presence of 100 nM VHL based ligand (2S,4R)-1-((S)-2-(2,3-dihydroxybenzamido)-3,3-dimethylbutanoyl)-4-hydroxy-N-(4-(4-methylthiazol-5-yl)benzyl)pyrrolidine-2-carboxamide by Western blot based Combinatorial Ubiquitination Real-time PROteolysis analysis
[10] = target: T1, von Hippel-Lindau disease tumor suppressor/Bromodomain-containing protein 4; test: as §4, with “30 nM” for “3 uM”, “300” for “100”
[11] = target: T1, von Hippel-Lindau disease tumor suppressor/Bromodomain-containing protein 4; test: as §4, with “300 nM” for “3 uM”, “300” for “100”
[12] = target: T1, von Hippel-Lindau disease tumor suppressor/Bromodomain-containing protein 4; test: as §4, with “at 1” for “at 3”, “of 300” for “of 100”
[13] = target: T1, von Hippel-Lindau disease tumor suppressor/Bromodomain-containing protein 4; test: as §4, with “100 nM” for “3 uM”, “1 uM” for “100 nM”
[14] = target: T1, von Hippel-Lindau disease tumor suppressor/Bromodomain-containing protein 4; test: as §4, with “1 uM” for “100 nM”
[15] = target: T1, von Hippel-Lindau disease tumor suppressor/Bromodomain-containing protein 4; test: as §4, with “at 10” for “at 3”, “of 1 uM” for “of 100 nM”
[16] = target: T1, von Hippel-Lindau disease tumor suppressor/Bromodomain-containing protein 4; test: (§5) PROTAC activity at VHL/BRD4 in HEK293 cells assessed as induction of BRD4 degradation by measuring degradation rate at 1 uM measured every 15 mins for 24 hrs in presence of BRD4 based ligand ((4S)-6-(4-chlorophenyl)-4-(2-(ethylamino)-2-oxoethyl)-1-methyl4Hbenzo[f][1,2,4]triazolo [4,3-a][1,4]diazepin-8-yl)boronic acid by HiBiT based Combinatorial Ubiquitination Real-time PROteolysis analysis
[17] = target: T1, von Hippel-Lindau disease tumor suppressor/Bromodomain-containing protein 4; test: as §5, with “measuring maximal level of” for “measuring”, “degradation” for “degradation rate”, “at 10” for “at 1”
[18] = target: T1, von Hippel-Lindau disease tumor suppressor/Bromodomain-containing protein 4; test: PROTAC activity at VHL/BRD4 in human MCF7 cells assessed as induction of BRD4 degradation at 10 uM measured at 4 hrs in presence of BRD4 based ligand ((4S)-6-(4-chlorophenyl)-4-(2-(ethylamino)-2-oxoethyl)-1-methyl4Hbenzo[f][1,2,4]triazolo [4,3-a][1,4]diazepin-8-yl)boronic acid by Western blot based Combinatorial Ubiquitination Real-time PROteolysis analysis
[19] = target: T1, von Hippel-Lindau disease tumor suppressor/Bromodomain-containing protein 4; test: as §3, with “100 nM” for “1 uM”, “of” for “of 100 nM”
[20] = target: T1, von Hippel-Lindau disease tumor suppressor/Bromodomain-containing protein 4; test: as §3, with “300 nM” for “1 uM”, “of” for “of 100 nM”
[21] = target: T1, von Hippel-Lindau disease tumor suppressor/Bromodomain-containing protein 4; test: as §3, with “of” for “of 100 nM”
[22] = target: T1, von Hippel-Lindau disease tumor suppressor/Bromodomain-containing protein 4; test: as §3, with “100 nM” for “1 uM”
[23] = target: T1, von Hippel-Lindau disease tumor suppressor/Bromodomain-containing protein 4; test: as §3, with “30 nM” for “1 uM”, “300” for “100”

Compound: CCNC(=O)C[C@@H]1N=C(c2ccc(Cl)cc2)c2cc(B(O)O)ccc2-n2c(C)nnc21
Activity [1]: inactive
Activity [2]: 0.908 h⁻¹
Emax [3]: 93%
Tmax [4]: 19.5 h
Activity [5]: 100%
Activity [6]: 89%
Activity [7]: 73%
Activity [8]: 56%
Activity [9]: 51%
Activity [10]: 104%
Activity [11]: 68%
Activity [12]: 48%
Activity [13]: 101%
Activity [14]: 32%
Activity [15]: 21%

Activity [16]: 0.548 h⁻¹
Emax [17]: 96%
Activity [18]: 100%
Activity [19]: 89%
Activity [20]: 100%
Activity [21]: 64%
Activity [22]: 97%
Activity [23]: 104%
Compound: Cc1ncsc1-c1ccc(CNC(=O)[C@@H]2C[C@@H](O)CN2C(=O)[C@@H](NC(=O)c2cccc(O)c2O)C(C)(C)C)cc1
